Test results as given in PMC2885673, “Interaction of triosephosphate isomerase from the cell surface of Staphylococcus aureus and α-(1→3)-mannooligosaccharides derived from glucuronoxylomannan of Cryptococcus neoformans” (Microbiology, 2009).

How the values were obtained:
[1] = biological target: T1, triosephosphate isomerase (TPI) from S. aureus (Staphylococcus aureus, UniProt Q2G030); assay: SPR (Biacore […]), TPI immobilized, heterogeneous ligand-parallel reaction fit; format: binding; details: HBS-EP pH 7.4, 150 mM NaCl, 3 mM EDTA; second site of a two-site fit (stronger site)
T1 construct: gene tpiA; native, purified from LiCl surface protein extract; 253 amino acids (homology model); amine-coupled to CM5 chip for SPR
T1 sequence (Q2G030 whole entry): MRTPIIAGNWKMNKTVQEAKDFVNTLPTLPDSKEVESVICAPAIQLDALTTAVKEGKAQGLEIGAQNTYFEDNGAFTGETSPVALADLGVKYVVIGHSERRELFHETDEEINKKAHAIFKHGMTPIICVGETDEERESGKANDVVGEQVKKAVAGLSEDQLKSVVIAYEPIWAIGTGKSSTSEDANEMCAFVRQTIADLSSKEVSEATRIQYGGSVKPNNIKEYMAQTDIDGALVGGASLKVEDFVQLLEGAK

[2] = biological target: T1, triosephosphate isomerase (TPI) from S. aureus; assay: coupled NADH / glycerol-3-phosphate dehydrogenase assay, A340; format: biochemical; details: 0.45 mM DL-glyceraldehyde 3-phosphate; S. aureus surface protein extract per the assay description

SMILES | Heterogeneous ligand-parallel reaction / Kd2 [1] | inhibition of TPI activity at 100 μM [2]
OC[C@H]1O[C@H](O[C@@H]2[C@H](O)[C@@H](O[C@@H]3[C@H](O)[C@@H](O[C@H]4[C@H](O)[C@@H](CO)OC(O)[C@H]4O)O[C@H](CO)[C@H]3O)O[C@H](CO)[C@H]2O)[C@@H](O)[C@@H](O)[C@@H]1O (stereo partly shown) [M4, mannotetraose] | 0.0146 µM | dose-dependent inhibition was observed with mannotriose, mannotetraose and mannopentaose
OC[C@H]1O[C@H](O[C@@H]2[C@H](O)[C@@H](O[C@H]3[C@H](O)[C@@H](CO)OC(O)[C@H]3O)O[C@H](CO)[C@H]2O)[C@@H](O)[C@@H](O)[C@@H]1O (stereo partly shown) [M3, mannotriose] | 124 µM | dose-dependent inhibition was observed with mannotriose, mannotetraose and mannopentaose
OC[C@H]1O[C@H](O[C@@H]2[C@H](O)[C@@H](O[C@@H]3[C@H](O)[C@@H](O[C@@H]4[C@H](O)[C@@H](O[C@H]5[C@H](O)[C@@H](CO)OC(O)[C@H]5O)O[C@H](CO)[C@H]4O)O[C@H](CO)[C@H]3O)O[C@H](CO)[C@H]2O)[C@@H](O)[C@@H](O)[C@@H]1O (stereo partly shown) [M5, mannopentaose] | 18.6 µM | dose-dependent inhibition was observed with mannotriose, mannotetraose and mannopentaose
OC[C@H]1O[C@H](O[C@H]2[C@H](O)[C@@H](CO)OC(O)[C@H]2O)[C@@H](O)[C@@H](O)[C@@H]1O (stereo partly shown) [M2, mannobiose] | 5.37 µM | 
